Measurements reported in US20230257376A1, “ROCK INHIBITOR, AND PREPARATION METHOD THEREFOR AND USE THEREOF” (WUHAN LL SCIENCE AND TECHNOLOGY DEVELOPMENT CO., LTD., priority 2020, published 2023).

Legend:
ROCK2 kinase = target: T1, ROCK2 kinase (Homo sapiens, UniProt O75116); experiment: In vitro evaluation of ROCK2 kinase activity (HTRF KinEASE-STK time-resolved fluorometric assay); assay type: biochemical; details: ROCK2 kinase 0.4 ng/μL, ATP 6.739 μM
T1 construct: purchased Invitrogen PV3759
Description: ROCK2 activity screening. ROCK2 activity was detected using a 96-well (Cisbio) time-resolved fluorometric assay. The assay for ROCK2 was performed in the following assay buffer: 5 mM MgCl2 (Sigma), 1 mM DTT (Sigma) and 1× kinase buffer. The kinase buffer was used for dilution. 7.5 μL of ROCK2 kinase (Invitrogen, PV3759) was added to a 96-well microplate to reach a final concentration of 0.4 ng/μL, and then 0.25 μL of test compound (DMSO content: 1% (volume fraction)) was added. The mixture was incubated at room temperature for 0.5 h. To start the reaction, the kinase buffer was used to mix ATP (Aladdin) and the substrate STK-substrate 2-biotin. 7.5 μL of the mixed solution was added to the microplate to reach final concentrations of 6.739 μM and 1 μM. The resulting mixture was incubated at room temperature for 2 h. 5 mL of detection buffer was mixed with STK antibody-Cryptate, and then an appropriate volume of the mixture was mixed with an equal volume of streptavidin-XL665. 10 μL of the resulting mixture was added to the microplate to stop the reaction. After further incubation for about 1 h, the microplate was read on a Molecular Devices SpectraMax i3x multifunctional microplate reader. The kinase buffer, the STK-substrate 2-biotin, the detection buffer, the STK antibody-Cryptate, and the streptavidin-XL665 were all from HTRF KinEASE-STK kit (Cisbio, 1000 tests, 61GSTXLA).

ROCK1 kinase = target: T2, ROCK1 kinase (Homo sapiens, UniProt Q13464); experiment: In vitro evaluation of ROCK1 kinase selectivity (HTRF KinEASE-STK time-resolved fluorometric assay); assay type: biochemical; details: ROCK1 kinase 0.4 ng/μL, ATP 3.53 μM
T2 construct: purchased Invitrogen
Description: ROCK1 activity was detected using a 96-well (Cisbio) time-resolved fluorometric assay. The assay for ROCK1 was performed in the following assay buffer: 5 mM MgCl2 (Sigma), 1 mM DTT (Sigma) and 1× kinase buffer. The kinase buffer was used for dilution. 7.5 μL of ROCK1 kinase (Invitrogen) was added to a 96-well microplate to reach a final concentration of 0.4 ng/μL, and then 0.25 μL of test compound (DMSO content: 1%) was added. The mixture was incubated at room temperature for 0.5 h. To start the reaction, the kinase buffer was also used to mix ATP (Aladdin) and the substrate STK-substrate 2-biotin. 7.5 μL of the mixed solution was added to the microplate to reach final concentrations of 3.53 μM and 1 μM. The resulting mixture was incubated at room temperature for 2 h. 5 mL of detection buffer was mixed with STK antibody-Cryptate, and then an appropriate volume of the mixture was mixed with an equal volume of streptavidin-XL665. 10 μL of the resulting mixture was added to stop the reaction. After further incubation for about 1 h, the microplate was read on a Molecular Devices SpectraMax i3x multifunctional microplate reader. The kinase buffer, the STK-substrate 2-biotin, the detection buffer, the STK antibody-Cryptate, and the streptavidin-XL665 were all from HTRF KinEASE-STK kit (Cisbio, 1000 tests, 61GSTXLA).

[1] = In vitro cytotoxicity assay in HepG2 cells using the CCK-8 method; assay type: cell-based; details: human
Description: In vitro cytotoxicity assay for the compounds disclosed herein was performed in HepG2 cells using the CCK-8 method. HepG2 cells (Beina Bio) in the logarithmic growth phase were collected, the concentration of cell suspension was adjusted, and then the cells were plated on a 96-well cell culture plate at 50,000 cells/well. The cells were then incubated overnight in a cell incubator (5%, 37° C.), and after 80-90% cell confluence was achieved, test compound at each concentration gradient or vehicle (DMSO) was added after medium change. The resulting mixture was incubated in the cell incubator (5%, 37° C.) for 48 h. After the treatment, the medium in the plate was discarded. The plate was washed twice with PBS, added with CCK-8 working solution (Beyotime) at 100 μL per well, and then incubated at 37° C. for 1.5 h in the dark. Absorbance at OD450 nm mil was measured for each well on a microplate reader, and CC50 value of each compound was analyzed and calculated.

[2] = In vitro metabolic stability, human liver microsome incubation; assay type: in vitro ADME; details: liver microsomes, 1 mg/mL protein, 37° C., read-out: T1/2 in human liver microsome
Description: (§1) The in vitro metabolic stability of the compounds disclosed herein was determined through incubation of liver microsomes of various species. A proper amount of test compound was added into a liver microsome reaction system (1 mg/mL liver microsome protein, 25 U/mL glucose-6 phosphate dehydrogenase, 1 mM NADP, 6 mM D-glucose 6-phosphate and 5 mM MgCl2), and then the mixture was incubated in a water bath kettle at 37° C. to start reaction. At each time point, 100 μL of the reaction liquid was added into a centrifuge tube containing 400 μL of internal standard working solution (containing a 200 ng/mL solution of dexamethasone, diclofenac, tolbutamide and labetalol in acetonitrile) precooled at 0° C. so as to stop the reaction, and the mixture was then centrifuged at 10,000 g for 10 min at 4° C. The supernatant was collected for LC-MS assay so as to obtain the values of in vitro metabolic half-life of the test compounds in liver microsomes of various species.

[3] = In vitro metabolic stability, rat liver microsome incubation; assay type: in vitro ADME; details: liver microsomes, 1 mg/mL protein, 37° C., read-out: T1/2 in rat liver microsome
Description: as §1

[4] = In vitro metabolic stability, guinea pig liver microsome incubation; assay type: in vitro ADME; details: liver microsomes, 1 mg/mL protein, 37° C., read-out: T1/2 in guinea pig liver microsome
Description: as §1

T2 sequence (Q13464 whole entry): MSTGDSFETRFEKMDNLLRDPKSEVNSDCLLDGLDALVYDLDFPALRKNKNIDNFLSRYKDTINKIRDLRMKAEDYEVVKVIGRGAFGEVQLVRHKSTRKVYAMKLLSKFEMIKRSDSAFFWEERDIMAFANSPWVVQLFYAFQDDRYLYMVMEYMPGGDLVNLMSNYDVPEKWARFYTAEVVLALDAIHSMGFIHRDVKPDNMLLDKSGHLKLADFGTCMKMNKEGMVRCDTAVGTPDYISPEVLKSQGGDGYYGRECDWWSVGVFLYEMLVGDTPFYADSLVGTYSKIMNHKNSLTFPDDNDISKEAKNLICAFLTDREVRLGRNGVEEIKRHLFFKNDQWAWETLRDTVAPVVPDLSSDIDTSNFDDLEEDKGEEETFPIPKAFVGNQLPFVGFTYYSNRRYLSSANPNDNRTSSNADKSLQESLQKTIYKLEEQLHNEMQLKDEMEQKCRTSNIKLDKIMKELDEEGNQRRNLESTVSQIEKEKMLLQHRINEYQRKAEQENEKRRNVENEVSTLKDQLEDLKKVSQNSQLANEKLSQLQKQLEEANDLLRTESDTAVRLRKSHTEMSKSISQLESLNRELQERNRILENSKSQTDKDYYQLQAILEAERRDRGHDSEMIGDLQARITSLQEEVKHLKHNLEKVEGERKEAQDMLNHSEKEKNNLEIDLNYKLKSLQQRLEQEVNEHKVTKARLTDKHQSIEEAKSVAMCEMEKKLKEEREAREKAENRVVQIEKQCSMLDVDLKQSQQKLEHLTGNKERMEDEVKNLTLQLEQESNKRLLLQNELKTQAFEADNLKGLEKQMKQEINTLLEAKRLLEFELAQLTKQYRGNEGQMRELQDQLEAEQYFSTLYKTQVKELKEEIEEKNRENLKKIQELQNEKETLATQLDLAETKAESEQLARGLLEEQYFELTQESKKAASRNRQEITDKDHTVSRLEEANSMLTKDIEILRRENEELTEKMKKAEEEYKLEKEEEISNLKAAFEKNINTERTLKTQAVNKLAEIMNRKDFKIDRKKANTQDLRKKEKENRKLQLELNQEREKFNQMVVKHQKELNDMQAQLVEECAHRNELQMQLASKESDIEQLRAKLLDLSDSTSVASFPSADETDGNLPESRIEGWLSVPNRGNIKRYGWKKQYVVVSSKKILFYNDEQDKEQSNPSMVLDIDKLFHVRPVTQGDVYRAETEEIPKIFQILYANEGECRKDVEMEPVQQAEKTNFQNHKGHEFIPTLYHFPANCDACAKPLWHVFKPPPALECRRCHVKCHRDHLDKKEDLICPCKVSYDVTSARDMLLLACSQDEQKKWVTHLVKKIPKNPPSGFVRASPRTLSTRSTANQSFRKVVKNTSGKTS
T1 sequence (O75116 whole entry): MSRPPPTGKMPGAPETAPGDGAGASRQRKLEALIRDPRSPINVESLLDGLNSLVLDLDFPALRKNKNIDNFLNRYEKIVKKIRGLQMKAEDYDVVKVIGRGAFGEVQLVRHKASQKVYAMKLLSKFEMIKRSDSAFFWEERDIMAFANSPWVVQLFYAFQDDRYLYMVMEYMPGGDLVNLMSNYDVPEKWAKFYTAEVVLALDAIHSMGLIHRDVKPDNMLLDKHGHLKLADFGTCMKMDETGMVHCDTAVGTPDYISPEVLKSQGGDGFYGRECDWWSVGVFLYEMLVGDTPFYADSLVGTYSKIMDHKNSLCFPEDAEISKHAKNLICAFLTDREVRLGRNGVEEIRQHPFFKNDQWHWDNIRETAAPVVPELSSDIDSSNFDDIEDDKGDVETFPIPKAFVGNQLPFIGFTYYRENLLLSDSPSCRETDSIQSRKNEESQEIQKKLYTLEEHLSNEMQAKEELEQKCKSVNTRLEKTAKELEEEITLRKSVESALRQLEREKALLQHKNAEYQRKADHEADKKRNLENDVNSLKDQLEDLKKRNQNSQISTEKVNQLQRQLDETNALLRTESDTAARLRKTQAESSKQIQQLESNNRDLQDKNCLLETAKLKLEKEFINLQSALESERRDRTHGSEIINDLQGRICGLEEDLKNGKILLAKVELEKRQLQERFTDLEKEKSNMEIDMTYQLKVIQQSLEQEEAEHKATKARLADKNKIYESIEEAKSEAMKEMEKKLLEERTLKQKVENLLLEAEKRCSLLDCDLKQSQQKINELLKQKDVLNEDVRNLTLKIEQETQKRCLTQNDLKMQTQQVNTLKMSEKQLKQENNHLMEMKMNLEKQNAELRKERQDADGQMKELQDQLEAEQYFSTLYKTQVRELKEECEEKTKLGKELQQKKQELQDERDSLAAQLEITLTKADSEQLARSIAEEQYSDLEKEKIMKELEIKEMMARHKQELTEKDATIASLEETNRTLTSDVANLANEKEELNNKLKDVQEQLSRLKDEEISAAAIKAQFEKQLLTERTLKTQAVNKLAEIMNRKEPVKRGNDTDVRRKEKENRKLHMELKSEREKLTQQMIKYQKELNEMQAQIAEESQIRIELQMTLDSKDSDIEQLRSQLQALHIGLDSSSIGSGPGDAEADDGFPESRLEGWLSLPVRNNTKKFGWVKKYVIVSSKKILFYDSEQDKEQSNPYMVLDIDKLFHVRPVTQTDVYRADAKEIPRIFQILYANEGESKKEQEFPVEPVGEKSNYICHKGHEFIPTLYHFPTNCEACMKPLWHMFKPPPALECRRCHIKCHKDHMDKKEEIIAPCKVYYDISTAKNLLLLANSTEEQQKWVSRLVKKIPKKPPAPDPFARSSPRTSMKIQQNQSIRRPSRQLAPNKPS

Structure (SMILES): COc1cnc(N2CCc3cc(C(=O)N4CC(F)(F)C4)n(C)c3C2)nc1Nc1ccc(-c2cn[nH]c2)cc1 [Compound L026, (6-(4-((4-(1H-pyrazol-4-yl)phenyl)amino)-5-methoxypyrimidin-2-yl)-1-methyl-4,5,6,7-tetrahydro-1H-pyrrolo[2,3-c]pyridin-2-yl)(3,3-difluoroazetidin-1-yl)methanone]
- IC50 (ROCK2 kinase): ≤ 0.05 µM
- IC50 (ROCK1 kinase): > 4.5 µM
- CC50 at 48 h [1]: > 100 µM
- half-life [2]: 3.95 h
- half-life [3]: 1.02 h
- half-life [4]: 0.473 h

Structure (SMILES): Cn1c(C(=O)N2CC(F)(F)C2)cc2c1CN(c1nc3c(c(Nc4ccc(-c5cn[nH]c5)cc4)n1)COCC3)CC2 [Compound L031]
- IC50 (ROCK2 kinase): ≤ 0.05 µM
- IC50 (ROCK1 kinase): > 4.5 µM
- CC50 at 48 h [1]: 33.4 µM

Structure (SMILES): Cn1c(C(=O)N2CC(F)(F)C2)cc2c1CN(c1ncc(C(F)(F)F)c(Nc3ccc(-c4cn[nH]c4)cc3)n1)CC2 [Compound L035, (6-(4-((4-(1H-pyrazol-4-yl)phenyl)amino)-5-(trifluoromethyl)pyrimidin-2-yl)-1-methyl-4,5,6,7-tetrahydro-1H-pyrrolo[2,3-c]pyridin-2-yl)(3,3-difluoroazetidin-1-yl)methanone]
- IC50 (ROCK2 kinase): 0.05 to 0.5 µM
- IC50 (ROCK1 kinase): > 4.5 µM

Structure (SMILES): Cn1c(C(=O)N2CC(F)(F)C2)cc2c1CN(c1ncc(Cl)c(Nc3ccc(-c4c[nH]nc4F)cc3)n1)CC2 [Compound L038, (6-(5-chloro-4-((4-(3-fluoro-1H-pyrazol-4-yl)phenyl)amino)pyrimidin-2-yl)-1-methyl-4,5,6,7-tetrahydro-1H-pyrrolo[2,3-c]pyridin-2-yl)(3,3-difluoroazetidin-1-yl)methanone]
- IC50 (ROCK2 kinase): 0.05 to 0.5 µM
- IC50 (ROCK1 kinase): > 4.5 µM

Structure (SMILES): Cn1c(C(=O)N2CC(C(F)F)C2)cc2c1CN(c1ncc(F)c(Nc3ccc(-c4c[nH]nc4F)cc3)n1)CC2 [Compound L039, (3-(difluoromethyl)azetidin-1-yl)(6-(5-fluoro-4-((4-(3-fluoro-1H-pyrazol-4-yl)phenyl)amino)pyrimidin-2-yl)-1-methyl-4,5,6,7-tetrahydro-1H-pyrrolo[2,3-c]pyridin-2-yl)methanone]
- IC50 (ROCK2 kinase): 0.05 to 0.5 µM
- IC50 (ROCK1 kinase): > 4.5 µM

Structure (SMILES): Cn1c(C(=O)N2CC(F)(F)C2)cc2c1CN(c1nc(Nc3ccc(-c4cn[nH]c4)cc3)cc(C(F)(F)F)n1)CC2 [Compound L041, (6-(4-((4-(1H-pyrazol-4-yl)phenyl)amino)-6-(trifluoromethyl)pyrimidin-2-yl)-1-methyl-4,5,6,7-tetrahydro-1H-pyrrolo[2,3-c]pyridin-2-yl)(3,3-difluoroazetidin-1-yl)methanone]
- IC50 (ROCK2 kinase): 0.05 to 0.5 µM
- IC50 (ROCK1 kinase): > 4.5 µM

Structure (SMILES): COc1nnc(N2CCc3cc(C(=O)N4CC(F)(F)C4)n(C)c3C2)nc1Nc1ccc(-c2cn[nH]c2)cc1 [Compound L043, (6-(5-((4-(1H-pyrazol-4-yl)phenyl)amino)-6-methoxy-1,2,4-triazin-3-yl)-1-methyl-4,5,6,7-tetrahydro-1H-pyrrolo[2,3-c]pyridin-2-yl)(3,3-difluoroazetidin-1-yl)methanone]
- IC50 (ROCK2 kinase): 0.05 to 0.5 µM
- CC50 at 48 h [1]: > 100 µM
- half-life [2]: 1.87 h
- half-life [3]: 1.34 h
- half-life [4]: 1.42 h

Structure (SMILES): O=C(c1cc2c(n1C(F)F)CN(c1ncnc(Nc3ccc(-c4cn[nH]c4)cc3)n1)CC2)N1CC(F)(F)C1 [Compound L045, (6-(4-((4-(1H-pyrazol-4-yl)phenyl)amino)-1,3,5-triazin-2-yl)-1-(difluoromethyl)-4,5,6,7-tetrahydro-1H-pyrrolo[2,3-c]pyridin-2-yl)(3,3-difluoroazetidin-1-yl)methanone]
- IC50 (ROCK2 kinase): > 4.5 µM
- IC50 (ROCK1 kinase): > 4.5 µM
- CC50 at 48 h [1]: > 100 µM

Structure (SMILES): Cn1c(C(=O)N2CC(F)(F)C2)cc2c1CN(c1nnc(Nc3ccc(-c4cn[nH]c4)cc3)o1)CC2 [Compound L046, (6-(5-((4-(1H-pyrazol-4-yl)phenyl)amino)-1,3,4-oxadiazol-2-yl)-1-methyl-4,5,6,7-tetrahydro-1H-pyrrolo[2,3-c]pyridin-2-yl)(3,3-difluoroazetidin-1-yl)methanone]
- IC50 (ROCK2 kinase): > 4.5 µM
- IC50 (ROCK1 kinase): > 4.5 µM

Structure (SMILES): O=C(c1cc2c(n1C(F)F)CN(c1ncc(F)c(Nc3ccc(-c4cn[nH]c4)cc3)n1)CC2)N1CC(F)(F)C1 [Compound L047, (6-(4-((4-(1H-pyrazol-4-yl)phenyl)amino)-5-fluoropyrimidin-2-yl)-1-(difluoromethyl)-4,5,6,7-tetrahydro-1H-pyrrolo[2,3-c]pyridin-2-yl)(3,3-difluoroazetidin-1-yl)methanone]
- IC50 (ROCK2 kinase): > 4.5 µM
- IC50 (ROCK1 kinase): > 4.5 µM
- CC50 at 48 h [1]: > 100 µM

Structure (SMILES): CCc1nc(Nc2ccc(-c3cn[nH]c3)cc2)nc(N2CCc3cc(C(=O)N4CC(F)(F)C4)n(C)c3C2)n1 [Compound L048, (6-(4-((4-(1H-pyrazol-4-yl)phenyl)amino)-6-ethyl-1,3,5-triazin-2-yl)-1-methyl-4,5,6,7-tetrahydro-1H-pyrrolo[2,3-c]pyridin-2-yl)(3,3-difluoroazetidin-1-yl)methanone]
- IC50 (ROCK2 kinase): 0.5 to 4.5 µM
- IC50 (ROCK1 kinase): > 4.5 µM
- CC50 at 48 h [1]: 100 µM

Structure (SMILES): CC(C)c1nc(Nc2ccc(-c3cn[nH]c3)cc2)nc(N2CCc3cc(C(=O)N4CC(F)(F)C4)n(C)c3C2)n1 [Compound L049]
- IC50 (ROCK2 kinase): 0.05 to 0.5 µM
- IC50 (ROCK1 kinase): > 4.5 µM

Structure (SMILES): Cn1c(C(=O)N2CC(F)(F)C2)cc2c1CN(c1nc(Nc3ccc(-c4cn[nH]c4)cc3)nc(C3COC3)n1)CC2 [Compound L052, (6-(4-((4-(1H-pyrazol-4-yl)phenyl)amino)-6-(oxetan-3-yl)-1,3,5-triazin-2-yl)-1-methyl-4,5,6,7-tetrahydro-1H-pyrrolo[2,3-c]pyridin-2-yl)(3,3-difluoroazetidin-1-yl)methanone]
- IC50 (ROCK2 kinase): 0.05 to 0.5 µM
- IC50 (ROCK1 kinase): > 4.5 µM

Structure (SMILES): Cn1c(C(=O)N2CC(F)(F)C2)cc2c1CN(c1nc3c(c(Nc4ccc(-c5cn[nH]c5)cc4)n1)CCC3)CC2 [Compound L053, (6-(4-((4-(1H-pyrazol-4-yl)phenyl)amino)-6,7-dihydro-5H-cyclopenta[d]pyrimidin-2-yl)-1-methyl-4,5,6,7-tetrahydro-1H-pyrrolo[2,3-c]pyridin-2-yl)(3,3-difluoroazetidin-1-yl)methanone]
- IC50 (ROCK2 kinase): 0.05 to 0.5 µM
- IC50 (ROCK1 kinase): > 4.5 µM

Structure (SMILES): O=C(c1ccc2c(cnn2-c2nccc(Nc3ccc(-c4cn[nH]c4)cc3)n2)c1)N1CC(F)(F)C1 [Compound L055]
- IC50 (ROCK2 kinase): 0.5 to 4.5 µM
- IC50 (ROCK1 kinase): > 4.5 µM

Structure (SMILES): CC(C)NC(=O)COc1cccc(-c2nc(Nc3ccc4[nH]ncc4c3)c3ccccc3n2)c1 [KD-025, reference compound]
- half-life [2]: 1.52 h
- half-life [3]: 0.287 h
- half-life [4]: 1.61 h
